Data from patent publication US12528814B2, “Bifunctional degraders of interleukin-1 receptor-associated kinases and therapeutic use thereof” (NURIX THERAPEUTICS, INC., priority 2020, dated 2026).
pIC50: −log10 of the molar value. Like-named read-outs stand apart in the source and are kept apart here.

Columns and labels:
[1] = target: T1, IRAK4 (Homo sapiens (Human), UniProt Q9NWZ3); assay: IRAK4 Biochemical HTRF Kinase Assay; settings: read-out: IRAK4 HTRF biochemical: IC50
Method: IRAK4 Biochemical HTRF Kinase Assay
The binding capacities of certain bifunctional compounds of Formula (I) were determined using the CisBio HTRF KinEASE STK S1 Kit (#62ST1PEB, contains 5× Kinase buffer, 1× Detection Buffer, anti-phospho-serine/threonine-cryptate, Streptavidin-XL665, and STK-S1), which measures the phosphorylation of a biotinylated peptide substrate by IRAK4, according to the manufacturer's protocol. […] 2 μl of a reaction solution containing 5 μM STK-S1, 10 mM ATP, and 10 mM MgCl2 were added to each well to a final volume of 10 μl. Assay controls include wells containing kinase with no compound (DMSO only) and wells containing no kinase and no compound (DMSO only). The reactions were allowed to proceed at ambient temperature for 90 minutes. […] The plates were incubated for 60 minutes at ambient temperature and then read on an Envision Multilabel Reader (PerkinElmer). […] For IC50 determination, the compounds were tested at sixteen concentrations in duplicate and curve-fitting was performed by non-linear regression analysis using GraphPad Priam.
Target sequence in this assay (Q9NWZ3 whole entry, species assumed): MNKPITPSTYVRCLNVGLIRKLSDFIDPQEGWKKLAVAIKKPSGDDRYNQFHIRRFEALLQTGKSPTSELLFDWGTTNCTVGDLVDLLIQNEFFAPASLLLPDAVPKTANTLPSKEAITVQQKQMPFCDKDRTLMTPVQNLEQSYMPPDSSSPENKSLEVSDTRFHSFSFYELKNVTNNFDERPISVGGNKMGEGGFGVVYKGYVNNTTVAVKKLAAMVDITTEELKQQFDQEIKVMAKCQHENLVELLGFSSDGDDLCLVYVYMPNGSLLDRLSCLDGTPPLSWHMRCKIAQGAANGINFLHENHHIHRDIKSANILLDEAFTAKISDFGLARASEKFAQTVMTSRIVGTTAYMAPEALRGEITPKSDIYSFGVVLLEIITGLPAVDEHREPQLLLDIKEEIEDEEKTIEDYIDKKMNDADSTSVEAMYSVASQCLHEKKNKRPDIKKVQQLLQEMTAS

[2] = target: T1, IRAK4; assay: IRAK4 Degradation HiBiT Assay; settings: HiBiT-tagged Jurkat cells, 4 hrs; for Dmax: Jurkat; for DC50: read-out: Cellular IRAK4 HiBiT: DC50
Target sequence in this assay (Q9NWZ3 whole entry): as the sequence (Q9NWZ3 whole entry, species assumed) above

[3] = read-out: Cellular IRAK4 HiBiT: Dmax, Table 5, multiple runs
[4] = read-out: Cellular IRAK4 HiBiT: Dmax, Table 4

Structure (SMILES) | pIC50 ([1]; Table 5, multiple runs) | Dmax [2, 3] [%] | DC50 ([2]; Table 5, multiple runs) [nM] | pIC50 ([1]; Table 4) | Dmax [2, 4] [%] | DC50 ([2]; Table 4) [nM] | Cellular IRAK4 HiBiT: Dmax ([2]; Table 5, multiple runs) [%]
CNc1cc(-c2ccc3cc(C#N)cnn23)ncc1-c1nnc(C23CCC(NC(=O)[C@H]4C[C@@H](OCCNc5cccc6c5C(=O)N(C5CCC(=O)NC5=O)C6=O)C4)(CC2)CC3)s1 (stereo partly drawn) [Example 109, (1s,3s)-N-(4-(5-(6-(3-cyanopyrrolo[1,2-b]pyridazin-7-yl)-4-(methylamino)pyridin-3-yl)-1,3,4-thiadiazol-2-yl)bicyclo[2.2.2]octan-1-yl)-3-(2-((2-(2,6-dioxopiperidin-3-yl)-1,3-dioxoisoindolin-4-yl)amino)ethoxy)cyclobutane-1-carboxamide] | 8.85 | 64 | 21.6 | – | – | – | –
CC(C)Nc1cc(-c2ccc3cc(C#N)cnn23)ncc1-c1nnc(N2CCN(C(=O)C3CCN(c4ccc5c(c4)C(=O)N(C4CCC(=O)NC4=O)C5=O)CC3)CC2)s1 (stereo not drawn) [Example 23, 7-{5-[5-(4-{1-[2-(2,6-dioxopiperidin-3-yl)-1,3-dioxo-2,3-dihydro-1H-isoindol-5-yl]piperidine-4-carbonyl}piperazin-1-yl)-1,3,4-thiadiazol-2-yl]-4-[(propan-2-yl)amino]pyridin-2-yl}pyrrolo[1,2-b]pyridazine-3-carbonitrile] | 8.82 | 108 | 57 | 8.82 | 97 | 184 | –
CNc1cc(-c2ccc3cc(C#N)cnn23)ncc1-c1nnc([C@H]2CC[C@H](NC[C@@H]3CCN(c4ccc5c(c4)C(=O)N(C4CCC(=O)NC4=O)C5=O)C3)CC2)s1 (stereo partly drawn) [Example 153, 7-(5-(5-((1S,4r)-4-((((3S)-1-(2-(2,6-dioxopiperidin-3-yl)-1,3-dioxoisoindolin-5-yl)pyrrolidin-3-yl)methyl)amino)cyclohexyl)-1,3,4-thiadiazol-2-yl)-4-(methylamino)pyridin-2-yl)pyrrolo[1,2-b]pyridazine-3-carbonitrile] | 9.30 | 68 | 54.8 | – | – | – | –
CNc1cc(-c2ccc3cc(C#N)cnn23)ncc1-c1nnc([C@H]2CC[C@@H](NC(=O)CCCCCCCNc3ccc4c(c3)C(=O)N(C3CCC(=O)NC3=O)C4=O)CC2)s1 (stereo partly drawn) [Example 112, N-((1s,4s)-4-(5-(6-(3-cyanopyrrolo[1,2-b]pyridazin-7-yl)-4-(methylamino)pyridin-3-yl)-1,3,4-thiadiazol-2-yl)cyclohexyl)-8-((2-(2,6-dioxopiperidin-3-yl)-1,3-dioxoisoindolin-5-yl)amino)octanamide] | 7.99 | 57 | 171 | – | – | – | –
CC(C)Nc1cc(-c2ccc3cc(C#N)cnn23)ncc1-c1nnc([C@H]2CC[C@H](NC(=O)CCOCCOCCNc3cccc4c3C(=O)N(C3CCC(=O)NC3=O)C4=O)CC2)s1 (stereo partly drawn) [Example 3, N-((1r,4r)-4-(5-(6-(3-cyanopyrrolo[1,2-b]pyridazin-7-yl)-4-(isopropylamino)pyridin-3-yl)-1,3,4-thiadiazol-2-yl)cyclohexyl)-3-(2-(2-((2-(2,6-dioxopiperidin-3-yl)-1,3-dioxoisoindolin-4-yl)amino)ethoxy)ethoxy)propanamide] | 8.72 | 90 | 30.1 | 8.64 | 91 | 32 | –
CNc1cc(-c2ccc3cc(C#N)cnn23)ncc1-c1nnc(N2CCN(C(=O)N3CCN(Cc4ccc5c(c4)C(=O)N(C4CCC(=O)NC4=O)C5=O)CC3)CC2)s1 (stereo not drawn) [Example 156, 7-(5-(5-(4-(4-((2-(2,6-dioxopiperidin-3-yl)-1,3-dioxoisoindolin-5-yl)methyl)piperazine-1-carbonyl)piperazin-1-yl)-1,3,4-thiadiazol-2-yl)-4-(methylamino)pyridin-2-yl)pyrrolo[1,2-b]pyridazine-3-carbonitrile] | 9.10 | 109 | 15.5 | – | – | – | –
CN[C@@H](C)C(=O)N[C@H](C(=O)N1C[C@@H](NC(=O)CCCCCCC(=O)N2CCN(c3nnc(-c4cnc(-c5ccc6cc(C#N)cnn56)cc4NC(C)C)s3)CC2)C[C@H]1C(=O)N[C@@H]1CCCc2ccccc21)C1CCCCC1 [Example 52, (2S,4S)-4-(8-(4-(5-(6-(3-cyanopyrrolo[1,2-b]pyridazin-7-yl)-4-(isopropylamino)pyridin-3-yl)-1,3,4-thiadiazol-2-yl)piperazin-1-yl)-8-oxooctanamido)-1-((S)-2-cyclohexyl-2-((S)-2-(methylamino)propanamido)acetyl)-N—((R)-1,2,3,4-tetrahydronaphthalen-1-yl)pyrrolidine-2-carboxamide] | 8.72 | 70 | 422 | 8.72 | 70 | 422 | –
CNc1cc(-c2ccc3cc(C#N)cnn23)ncc1-c1nnc(N2CCCC3(CN(C(=O)C[C@H](NC(=O)[C@@H]4C[C@@H](O)CN4C(=O)[C@@H](NC(=O)C4(F)CC4)C(C)(C)C)c4ccc(-c5scnc5C)cc4)C3)C2)s1 [Example 150, (2S,4R)—N—((S)-3-(6-(5-(6-(3-cyanopyrrolo[1,2-b]pyridazin-7-yl)-4-(methylamino)pyridin-3-yl)-1,3,4-thiadiazol-2-yl)-2,6-diazaspiro[3.5]nonan-2-yl)-1-(4-(4-methylthiazol-5-yl)phenyl)-3-oxopropyl)-1-((S)-2-(1-fluorocyclopropane-1-carboxamido)-3,3-dimethylbutanoyl)-4-hydroxypyrrolidine-2-carboxamide] | 8.26 | 113 | 441 | – | – | – | –
CNc1cc(-c2ccc3cc(C#N)cnn23)ncc1-c1nnc([C@H]2CC[C@H](NC(=O)C3CN(C4CCN(c5ccc6c(c5)C(=O)N(C5CCC(=O)NC5=O)C6=O)CC4)C3)CC2)s1 (stereo partly drawn) [Example 138, N-((1r,4r)-4-(5-(6-(3-cyanopyrrolo[1,2-b]pyridazin-7-yl)-4-(methylamino)pyridin-3-yl)-1,3,4-thiadiazol-2-yl)cyclohexyl)-1-(1-(2-(2,6-dioxopiperidin-3-yl)-1,3-dioxoisoindolin-5-yl)piperidin-4-yl)azetidine-3-carboxamide] | 9.10 | 116 | 65.5 | – | – | – | –
CNc1cc(-c2ccc3cc(C#N)cnn23)ncc1-c1nnc(C23CCC(NC(=O)[C@H]4CC[C@H](C(=O)N[C@H](C(=O)N5C[C@H](O)C[C@H]5C(=O)NCc5ccc(-c6scnc6C)cc5)C(C)(C)C)CC4)(CC2)CC3)s1 [Example 130, (1S,4r)-N1-(4-(5-(6-(3-cyanopyrrolo[1,2-b]pyridazin-7-yl)-4-(methylamino)pyridin-3-yl)-1,3,4-thiadiazol-2-yl)bicyclo[2.2.2]octan-1-yl)-N4—((S)-1-((2S,4R)-4-hydroxy-2-((4-(4-methylthiazol-5-yl)benzyl)carbamoyl)pyrrolidin-1-yl)-3,3-dimethyl-1-oxobutan-2-yl)cyclohexane-1,4-dicarboxamide] | 8.74 | – | 126 | – | – | – | 110
CNc1cc(-c2ccc3cc(C#N)cnn23)ncc1-c1nnc(C23CCC(NC(=O)CCCCCNc4cccc5c4C(=O)N(C4CCC(=O)NC4=O)C5=O)(CC2)CC3)s1 (stereo not drawn) [Example 106, N-(4-(5-(6-(3-cyanopyrrolo[1,2-b]pyridazin-7-yl)-4-(methylamino)pyridin-3-yl)-1,3,4-thiadiazol-2-yl)bicyclo[2.2.2]octan-1-yl)-6-((2-(2,6-dioxopiperidin-3-yl)-1,3-dioxoisoindolin-4-yl)amino)hexanamide] | 8.70 | 45 | 43.8 | – | – | – | –
CNc1cc(-c2ccc3cc(C#N)cnn23)ncc1-c1nnc([C@H]2C[C@H](NC(=O)CN3CCN(c4ccc5c(c4)C(=O)N(C4CCC(=O)NC4=O)C5=O)CC3)C2)s1 (stereo partly drawn) [Example 190, N-((1r,3r)-3-(5-(6-(3-cyanopyrrolo[1,2-b]pyridazin-7-yl)-4-(methylamino)pyridin-3-yl)-1,3,4-thiadiazol-2-yl)cyclobutyl)-2-(4-(2-(2,6-dioxopiperidin-3-yl)-1,3-dioxoisoindolin-5-yl)piperazin-1-yl)acetamide] | 9.00 | 105 | 7.75 | – | – | – | –
CNc1cc(-c2ccc3cc(C#N)cnn23)ncc1-c1nnc(N2CCN(C3CCN(C(=O)Cc4ccc5c(c4)CN(C4CCC(=O)NC4=O)C5=O)CC3)CC2)s1 (stereo not drawn) [Example 100, 7-(5-(5-(4-(1-(2-(2-(2,6-dioxopiperidin-3-yl)-1-oxoisoindolin-5-yl)acetyl)piperidin-4-yl)piperazin-1-yl)-1,3,4-thiadiazol-2-yl)-4-(methylamino)pyridin-2-yl)pyrrolo[1,2-b]pyridazine-3-carbonitrile] | 9.40 | 111 | 4.41 | – | – | – | –
CC(C)Nc1cc(-c2ccc3cc(C#N)cnn23)ncc1-c1nnc(N2CCC(NC(=O)C3CCN(Cc4ccc5c(c4)C(=O)N(C4CCC(=O)NC4=O)C5=O)CC3)CC2)s1 (stereo not drawn) [Example 30, N-(1-(5-(6-(3-cyanopyrrolo[1,2-b]pyridazin-7-yl)-4-(isopropylamino)pyridin-3-yl)-1,3,4-thiadiazol-2-yl)piperidin-4-yl)-1-((2-(2,6-dioxopiperidin-3-yl)-1,3-dioxoisoindolin-5-yl)methyl)piperidine-4-carboxamide] | 8.96 | 95 | 73.5 | 9.05 | 95 | 73.4 | –
